Results published in patent US10105357B2, “Indication of antibiotic drugs for preparation of cancer inhibition pharmaceutical composition” (LAUNX BIOMEDICAL CO., LTD., priority 2014, dated 2018).
Where a name gives a salt, the structure may show the parent alone. Read-outs that look alike come from different tables or passages of the source.

Legend:
[1] = system: cancer cell lines; experiment: Cell viability analysis (WST-1) on cancer cell lines; format: cell-based, human; details: drug 10 μM, 72 hours, WST-1; Table 3
[2] = system: HI650 (Lung Adenocarcinoma); experiment: Cell viability analysis, lung cancer HI650; format: cell-based, human; details: Homo sapiens, NCI-H1650, 72 h
[3] = system: A549 (Lung Adenocarcinoma); experiment: Cell viability analysis, lung cancer A549; format: cell-based, human; details: Homo sapiens, A549, 72 h
[4] = system: AGS (Gastric Adenocarcinoma); experiment: Cell viability analysis, gastric cancer AGS; format: cell-based, human; details: Homo sapiens, 72 h
[5] = system: MKN-45 (Gastric Adenocarcinoma); experiment: Cell viability analysis, gastric cancer MKN-45; format: cell-based, human; details: Homo sapiens, MKN-45, 72 h
[6] = system: HepG2 (Hepatocellular Carcinoma); experiment: Cell viability analysis, hepatic cancer HepG2; format: cell-based, human; details: Homo sapiens, HepG2, 72 h
[7] = system: Hep3B (hepatocellular carcinoma); experiment: Cell viability analysis, hepatic cancer Hep3B; format: cell-based, human; details: Homo sapiens, Hep3B, 72 h, read-out: The results of antibiotic drug inhibiting cancer cell lines (cell viability analysis), Hep3B
[8] = system: LoVo (Colorectal Adenocarcinoma); experiment: Cell viability analysis, colon cancer LoVo; format: cell-based, human; details: Homo sapiens, LoVo, 72 h
[9] = system: A375 (Amelanotic Melanoma); experiment: Cell viability analysis, skin cancer A375; format: cell-based, human; details: Homo sapiens, A-375, 72 h, read-out: cell viability (survival rate), A375, drug 10 μM, 72 hours, WST-1, OD450 nm
[10] = system: BCC (basal cell carcinoma); experiment: Cell viability analysis, skin cancer BCC; format: cell-based, human; details: Homo sapiens, 72 h, read-out: The results of antibiotic drug inhibiting cancer cell lines (cell viability analysis), BCC
[11] = system: HeLa (Cervix Adenocarcinoma); experiment: Cell viability analysis, cervical cancer HeLa; format: cell-based, human; details: Homo sapiens, HeLa, 72 h
[12] = system: C-33A (Cervical carcinoma); experiment: Cell viability analysis, cervical cancer C-33A; format: cell-based, human; details: Homo sapiens, C-33-A, 72 h, read-out: The results of antibiotic drug inhibiting cancer cell lines (cell viability analysis), C-33A
[13] = system: PC3 (p53−) (Prostate Adenocarcinoma); experiment: Cell viability analysis, prostate cancer PC3; format: cell-based, human; details: Homo sapiens, 72 h
[14] = system: TSGH-8301 (Urinary Bladder Carcinoma); experiment: Cell viability analysis, bladder cancer TSGH-8301; format: cell-based, human; details: Homo sapiens, 72 h
[15] = system: T24; experiment: Cell viability analysis, bladder cancer T24; format: cell-based, human; details: Homo sapiens, T-24, 72 h, read-out: The results of antibiotic drug inhibiting cancer cell lines (cell viability analysis), T24
[16] = system: MCF7 (Mammary Gland, Adenocarcinoma); experiment: Cell viability analysis, breast cancer MCF7; format: cell-based, human; details: Homo sapiens, MCF7, 72 h
[17] = system: MDA-MB-231 (Mammary Gland, Adenocarcinoma); experiment: Cell viability analysis, breast cancer MDA-MB-231; format: cell-based, human; details: Homo sapiens, MDA-MB-231, 72 h, read-out: The results of antibiotic drug inhibiting cancer cell lines (cell viability analysis), MDA-MB231
[18] = system: BxPC-3; experiment: Cell viability analysis, pancreatic cancer BxPC-3; format: cell-based, human; details: Homo sapiens, BXPC-3, 72 h, read-out: The results of antibiotic drug inhibiting cancer cell lines (cell viability analysis), BxPC-3
[19] = system: AsPC-1; experiment: Cell viability analysis, pancreatic cancer AsPC-1; format: cell-based, human; details: Homo sapiens, ASPC1, 72 h, read-out: The results of antibiotic drug inhibiting cancer cell lines (cell viability analysis), AsPC-1
[20] = system: TOV-21G; experiment: Cell viability analysis, ovarian cancer TOV-21G; format: cell-based, human; details: Homo sapiens, TOV21G, 72 h, read-out: The results of antibiotic drug inhibiting cancer cell lines (cell viability analysis), TOV-21G
[21] = system: SAS (Tongue squamous cell carcinoma); experiment: Cell viability analysis, tongue cancer SAS; format: cell-based, human; details: Homo sapiens, 72 h, read-out: The results of antibiotic drug inhibiting cancer cell lines (cell viability analysis), SAS
[22] = system: U-2OS; experiment: Cell viability analysis, osteosarcoma U-2OS; format: cell-based, human; details: Homo sapiens, U2OS, 72 h, read-out: The results of antibiotic drug inhibiting cancer cell lines (cell viability analysis), U2OS
[23] = system: 786-O (Renal adenocarcinoma); experiment: Cell viability analysis, renal cancer 786-O; format: cell-based, human; details: Homo sapiens, 786-0, 72 h, read-out: The results of antibiotic drug inhibiting cancer cell lines (cell viability analysis), 786-O
[24] = system: HL-60 (Acute Promyelocytic Leukemia); experiment: Cell viability analysis, leukemia HL-60; format: cell-based, human; details: Homo sapiens, HL-60, 72 h, read-out: cell viability (survival rate), HL-60, drug 10 μM, 72 hours, WST-1, OD450 nm
[25] = system: HCT116 (p53+) (Colorectal Carcinoma)

Structure (SMILES): CN(C)CCC[C@@]1(c2ccc(F)cc2)OCc2cc(C#N)ccc21 [Escitalopram oxalate]
- inhibition effect on different cancer cell lines [1]: significant inhibition effect
- viability at 10 µM ([2]; read-out: The results of antibiotic drug inhibiting cancer cell lines (cell viability analysis), H1650, H1650, repeated experiment): 92.1%
- viability at 10 µM ([2]; read-out: cell viability (survival rate), H1650, drug 10 μM, 72 hours, WST-1, OD450 nm): 80.4%
- viability at 10 µM ([3]; read-out: The results of antibiotic drug inhibiting cancer cell lines (cell viability analysis), A549, A549, repeated experiment): 103%
- viability at 10 µM ([3]; read-out: cell viability (survival rate), A549, drug 10 μM, 72 hours, WST-1, OD450 nm): 122%
- viability at 10 µM ([4]; read-out: The results of antibiotic drug inhibiting cancer cell lines (cell viability analysis), AGS, repeated experiment): 145%
- viability at 10 µM ([4]; read-out: cell viability (survival rate), AGS, drug 10 μM, 72 hours, WST-1, OD450 nm): 62.3%
- viability at 10 µM ([5]; read-out: The results of antibiotic drug inhibiting cancer cell lines (cell viability analysis), MKN-45, MKN-45, repeated experiment): 127%
- viability at 10 µM ([5]; read-out: cell viability (survival rate), MKN-45, drug 10 μM, 72 hours, WST-1, OD450 nm): 116%
- viability at 10 µM ([6]; read-out: The results of antibiotic drug inhibiting cancer cell lines (cell viability analysis), HepG2, HepG2, repeated experiment): 113%
- viability at 10 µM ([6]; read-out: cell viability (survival rate), HepG2, drug 10 μM, 72 hours, WST-1, OD450 nm): 94%
- viability at 10 µM [7]: 134%
- viability at 10 µM ([8]; read-out: The results of antibiotic drug inhibiting cancer cell lines (cell viability analysis), LoVo, repeated experiment): 89.3%
- viability at 10 µM ([8]; read-out: cell viability (survival rate), LoVo, drug 10 μM, 72 hours, WST-1, OD450 nm): 91.6%
- viability at 10 µM [9]: 68%
- viability at 10 µM [10]: 102%
- viability at 10 µM ([11]; read-out: The results of antibiotic drug inhibiting cancer cell lines (cell viability analysis), HeLa, repeated experiment): 126%
- viability at 10 µM ([11]; read-out: cell viability (survival rate), HeLa, drug 10 μM, 72 hours, WST-1, OD450 nm): 95%
- viability at 10 µM [12]: 110%
- viability at 10 µM ([13]; read-out: The results of antibiotic drug inhibiting cancer cell lines (cell viability analysis), PC-3, PC-3, repeated experiment): 120%
- viability at 10 µM ([13]; read-out: cell viability (survival rate), PC3, drug 10 μM, 72 hours, WST-1, OD450 nm): 79.5%
- viability at 10 µM ([14]; read-out: The results of antibiotic drug inhibiting cancer cell lines (cell viability analysis), TSGH-8301, TSGH-8301, repeated experiment): 135%
- viability at 10 µM ([14]; read-out: cell viability (survival rate), TSGH, drug 10 μM, 72 hours, WST-1, OD450 nm): 80.6%
- viability at 10 µM [15]: 97.7%
- viability at 10 µM ([16]; read-out: The results of antibiotic drug inhibiting cancer cell lines (cell viability analysis), MCF-7, MCF-7, repeated experiment): 80.1%
- viability at 10 µM ([16]; read-out: cell viability (survival rate), MCF7, drug 10 μM, 72 hours, WST-1, OD450 nm): 97.4%
- viability at 10 µM [17]: 111%
- viability at 10 µM [18]: 68.1%
- viability at 10 µM [19]: 80.3%
- viability at 10 µM [20]: 117%
- viability at 10 µM [21]: 65.3%
- viability at 10 µM [22]: 62.2%
- viability at 10 µM [23]: 88.8%
- viability at 10 µM [24]: 92.7%
- viability [25]: 123%
